By IC50 is commonly meant the point on the concentration scale where inhibition reaches its midpoint.

Structures are written as SMILES.

The nature of the first experiment: Compound was tested for the inhibition of Fucosyltransferase 4 alpha 1,3 at 8.5 uM GDP-fucose.
The compound `C[C@H]1[C@@H](O)[C@H](O)[C@H](O)CN1Cc1ccccc1O[C@@H]1O[C@@H](CO)[C@H](O)[C@H](O)[C@@H]1O` yielded an IC50 of 81 µM.

For the compound `C[C@H]1[C@@H](O)[C@H](O)[C@H](O)CN1CCCO[C@@H]1O[C@@H](CO)[C@H](O)[C@H](O)[C@@H]1O`, the IC50 was greater than 500 µM.

The compound `C[C@H]1[C@@H](O)[C@H](O)[C@H](O)CN1CCCCO[C@@H]1O[C@@H](CO)[C@H](O)[C@H](O)[C@@H]1O` had an IC50 of 233 µM.

Consider `Nc1nc2c(ncn2[C@@H]2O[C@H](COP(=O)(O)OP(=O)(O)O)[C@@H](O)[C@H]2O)c(=O)[nH]1`, for which half-maximal inhibition (IC50) required 5 µM. This IC50 is about 47-fold lower than that of the compound before.

Consider `C[C@@H]1NC[C@@H](O)[C@H](O)[C@@H]1O` [DEOXYFUCONOJIRIMYCIN], for which the IC50 was found to be 3500 µM. This IC50 is about 700-fold higher than that of the compound before.

A further experiment in a line: Compound was tested for the inhibition of Fucosyltransferase 4 alpha 1,3 at 2 uM GDP-fucose.
In the case of `C[C@H]1[C@@H](O)[C@H](O)[C@H](O)CN1Cc1ccccc1O[C@@H]1O[C@@H](CO)[C@H](O)[C@H](O)[C@@H]1O`, the IC50 amounted to 50 µM. This counts as double-digit micromolar.

(Values after ChEMBL document CHEMBL1152002, “Synthesis of inhibitors of -1,3-fucosyltransferase” (Bioorg Med Chem Lett, 1997).)
